Measurements taken from patent US9610369B2, “Compound suitable for detection of vesicular acetylcholine transporter” (HAMAMATSU PHOTONICS K.K., priority 2013, dated 2017).

Experiments:
[1] = target: T1, vesicular acetylcholine transporters (Macaca mulatta, UniProt A0A1D5QJ59); assay: PET measurement of time-dependent change of [^11C]HAPT in brain ROIs; format: in vivo, Rhesus monkey (Macaca mulatta); conditions: brain of Rhesus monkey, FIG. 1; for binding to vesicular acetylcholine transporters: intravenous administration, dynamic PET 180 minutes
T1 construct: Rhesus monkey having a body weight of about 5 kg was immobilized to PET apparatus; from tissue; host or cells: brain of living Rhesus monkey (in vivo PET)
T1 sequence (A0A1D5QJ59 1-532): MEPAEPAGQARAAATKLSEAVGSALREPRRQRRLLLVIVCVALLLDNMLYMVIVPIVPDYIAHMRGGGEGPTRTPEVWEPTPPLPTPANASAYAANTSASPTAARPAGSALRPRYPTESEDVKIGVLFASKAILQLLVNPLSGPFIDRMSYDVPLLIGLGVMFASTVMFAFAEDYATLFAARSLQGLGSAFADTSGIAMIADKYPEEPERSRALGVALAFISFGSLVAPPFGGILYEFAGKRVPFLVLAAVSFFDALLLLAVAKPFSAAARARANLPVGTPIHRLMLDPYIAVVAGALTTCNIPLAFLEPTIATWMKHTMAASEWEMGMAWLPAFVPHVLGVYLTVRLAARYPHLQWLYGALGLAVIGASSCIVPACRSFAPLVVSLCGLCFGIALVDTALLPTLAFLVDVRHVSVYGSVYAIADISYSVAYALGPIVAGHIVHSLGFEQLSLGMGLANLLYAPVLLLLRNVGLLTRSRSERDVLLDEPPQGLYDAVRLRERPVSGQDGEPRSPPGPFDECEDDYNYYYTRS
Method: (§1) Rhesus monkey having a body weight of about 5 kg was immobilized to PET apparatus (trade name, SHR7700 manufactured by Hamamatsu Photonics KK) without anesthesia. After transmission was measured for absorption correction, [^11C]HAPT was intravenously administered and dynamic measurement was performed for 180 minutes.
In tomographic images obtained from a single individual by a nuclear magnetic resonance tomography apparatus (hereinafter, MRI), a region of interest (ROI) was determined and then, a time-dependent change of a labeled compound ([^11C]HAPT) in each ROI was obtained.

[2] = target: T1, vesicular acetylcholine transporters; assay: Inhibition experiment with vesicular transporter inhibitor vesamicol (PET); format: in vivo, Rhesus monkey; conditions: L-(−)-vesamicol 1 mg/kg intravenously 30 minutes before tracer, FIG. 4 and 5
Method: Inhibition experiments were performed by using a vesicular transporter inhibitor (vesamicol). Specific procedure employed is as follows.
The cephalic vein or saphenous vein was secured as the route for intravenous administration to test animals and the femoral artery or posterior tibial artery was secured as the route for arterial blood sampling.
Thirty minutes before administration of [^11C]HAPT, L-(−)-vesamicol was intravenously administered in a dose of 1 mg/kg.
The amount of radioactivity of [^11C]HAPT before administration was measured. A total amount of [^11C]HAPT was intravenously administered from an indwelling needle placed in a test animal over about 30 seconds. Simultaneously with initiation of administration, Emission measurement (121 minutes, 55 frames in total including: 10 seconds 6 frames, 30 seconds 6 frames, 1 minute 12 frames, […], 5 minutes 6 frames) was started for monitoring.

[3] = target: T1, vesicular acetylcholine transporters; assay: Localization of [^11C]HAPT in individual sites of the brain (PET); format: in vivo; conditions: brain of Rhesus monkey, 13 sites checked, FIG. 3
Method: as §1
Localization of [^11C]HAPT in individual sites of the brain of Rhesus monkey was checked. The results of the cases of using (S,S)HAPT-A and (R,R)HAPT-A are shown in FIG. 3 (A); whereas the results of the cases of using (S,S)HAPT-B and (R,R)HAPT-B are shown in FIG. 3 (B).

Structure (SMILES)	time to reach an equilibrium state from initiation of measurement ([1]; PET)	binding to vesicular acetylcholine transporters [1]	binding to vesicular acetylcholine transporters with vesamicol compared to control [2]	localization in individual sites of the brain [3]
[11CH3]c1cccc2c1C[C@@H](O)[C@H](N1CCN(c3ccccc3N)CC1)C2 [(R,R)[^11C]HAPT-B, (2R,3R)-3-(4-(2-aminophenyl)piperazin-1-yl)-8-[^11C]methyl-1,2,3,4-tetrahydronaphthalen-2-ol]	about 15 minutes	specifically bind to vesicular acetylcholine transporters	reduces	
Cc1cccc2c1C[C@@H](O)[C@H](N1CCN(c3ccccc3N)CC1)C2 [(R,R)[^11C]HAPT-B, (2R,3R)-3-(4-(2-aminophenyl)piperazin-1-yl)-8-[^11C]methyl-1,2,3,4-tetrahydronaphthalen-2-ol]		specifically binds to a vesicular acetylcholine transporter		localized most significantly in the putamen
Cc1cccc2c1C[C@@H](N1CCN(c3ccccc3N)CC1)[C@H](O)C2 [(R,R)[^11C]HAPT-A]		specifically bind to vesicular acetylcholine transporters		localized most significantly in the putamen
Cc1cccc2c1C[C@H](O)[C@@H](N1CCN(c3ccccc3N)CC1)C2 [(S,S)[^11C]HAPT-B]		does not bind to vesicular acetylcholine transporters		non-specific binding in any site
Cc1cccc2c1C[C@H](N1CCN(c3ccccc3N)CC1)[C@@H](O)C2 [(S,S)[^11C]HAPT-A]		specifically bind to vesicular acetylcholine transporters		localized most significantly in the putamen
